Experimental findings from ChEMBL document CHEMBL3792348, “Design, synthesis and structure activity relationship of potent pan-PIM kinase inhibitors derived from the pyridyl carboxamide scaffold” (Bioorg Med Chem Lett, 2016) are described below.

Data set [1] addresses Serine/threonine-protein kinase pim-1 (Homo sapiens, UniProt P11309). Nature of the data set: Inhibition of Pim1 (unknown origin) using BAD peptide preincubated for 15 mins followed by ATP addition measured after 60 to 100 mins by Kinase-Glo reagent based luminescence assay. For orientation: Kinase-Glo measures the ATP left after a reaction by luminescence.
Data set [2] deals with Serine/threonine-protein kinase pim-2 (Homo sapiens, UniProt Q9P1W9).
Description: Inhibition of Pim2 (unknown origin) using BAD peptide preincubated for 15 mins followed by ATP addition measured after 60 to 100 mins by Kinase-Glo reagent based luminescence assay
Data set [3] deals with Serine/threonine-protein kinase pim-3 (Homo sapiens, UniProt Q86V86). Description: Inhibition of Pim3 (unknown origin) using BAD peptide preincubated for 15 mins followed by ATP addition measured after 60 to 100 mins by Kinase-Glo reagent based luminescence assay.
The nature of data set [4]: Hepatic extraction ratio in rat liver microsomes at 1 uM incubated for 30 mins by semi-quantitative LC-MS/MS analysis. Conditions: read-out: ERH. The data set is classed as ADME. (In general: Liver microsomes are a subcellular fraction often used to study metabolism.)
The nature of data set [5]: Lipophilicity, logD of the compound. It counts as physicochemical. The settings on record: octanol/water.
Data set [6] in a line: Hepatic extraction ratio in human liver microsomes at 1 uM incubated for 30 mins by semi-quantitative LC-MS/MS analysis. The data set is classed as ADME. Conditions: read-out: ERH.

Some results are limits rather than exact numbers.

Chain of Serine/threonine-protein kinase pim-1 (P11309 whole entry): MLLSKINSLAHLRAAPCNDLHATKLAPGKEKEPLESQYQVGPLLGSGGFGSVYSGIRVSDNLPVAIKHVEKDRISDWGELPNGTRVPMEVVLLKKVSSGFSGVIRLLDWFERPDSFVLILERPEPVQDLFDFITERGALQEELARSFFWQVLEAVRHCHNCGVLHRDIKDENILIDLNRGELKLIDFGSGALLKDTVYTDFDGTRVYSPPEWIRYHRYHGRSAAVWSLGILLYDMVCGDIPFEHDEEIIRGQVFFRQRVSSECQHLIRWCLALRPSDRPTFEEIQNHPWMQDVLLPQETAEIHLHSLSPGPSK
Chain of Serine/threonine-protein kinase pim-2 (Q9P1W9 whole entry): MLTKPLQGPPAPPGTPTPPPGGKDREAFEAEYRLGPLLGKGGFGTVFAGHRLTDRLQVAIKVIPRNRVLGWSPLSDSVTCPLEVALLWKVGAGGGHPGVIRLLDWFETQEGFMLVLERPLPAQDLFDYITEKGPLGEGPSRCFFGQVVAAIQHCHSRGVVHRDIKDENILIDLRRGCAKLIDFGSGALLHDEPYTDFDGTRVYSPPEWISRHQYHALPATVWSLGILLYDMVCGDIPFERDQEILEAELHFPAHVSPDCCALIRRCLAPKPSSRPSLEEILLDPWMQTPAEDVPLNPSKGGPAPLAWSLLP

For orientation: Ki means the equilibrium dissociation constant of an inhibitor or competing ligand from its target. For the compound `CC(=O)Nc1nc(C(=O)Nc2ccccc2N2CCCCC2)cs1`, the Ki in data set [1] was 90 nM; in data set [2], above 12500 nM.

One may read the logD as lipophilicity at a set pH, counting ionised and neutral species. Higher therefore signals a more lipophilic compound. For the compound `Nc1cc(-c2ccncc2NC(=O)c2nc(-c3c(F)cccc3F)ccc2N)nc(C(F)(F)F)n1`, the values for the Ki in data set [3], in data set [1] and in data set [2] were below 3 nM, below 1 nM and below 3 nM, respectively. The hepatic extraction ratio at 0.5 h, 1 µM in data set [4] was 0.91; in data set [6], 0.77. In data set [5], this compound yielded a logD of 4.3.

`Nc1cc(-c2ccncc2NC(=O)c2nc(-c3ccccc3F)ccc2N)ccn1`: the Ki in data set [3] is 3 nM; in data set [1], below 1 nM; in data set [2] it was 35 nM.

As for `Nc1cncc(-c2ccncc2NC(=O)c2nc(-c3ccccc3F)ccc2N)n1`, the figures for the Ki in data set [3], in data set [1] and in data set [2] were 6 nM, 3 nM and 94 nM, respectively.

With `Nc1ccc(-c2c(F)cccc2F)nc1C(=O)Nc1cnccc1-c1cccnc1N`, the figures for the Ki in data set [3], in data set [1] and in data set [2] were 36 nM, 28 nM and 187 nM, respectively.

Take `Nc1cc(-c2ccncc2NC(=O)c2nc(-c3nccs3)ccc2N)nc(C(F)(F)F)n1`: the Ki in data set [3] is below 3 nM; in data set [1], below 1 nM; in data set [2], below 3 nM. In addition, the hepatic extraction ratio at 0.5 h, 1 µM was 0.89 in data set [4] and 0.87 in data set [6].

For `Cc1cc(-c2ccncc2NC(=O)c2nc(-c3ccccc3F)ccc2N)cc(N)n1`, the values for the inhibition constant Ki in data set [3], in data set [1] and in data set [2] were below 3 nM, below 1 nM and 4 nM, respectively. The hepatic extraction ratio at 0.5 h, 1 µM in data set [4] and in data set [6] was 0.95 each time.

For `Nc1cc(-c2ccncc2NC(=O)c2nc(-c3ccccc3F)ccc2N)nc(N)n1`, the values for the Ki in data set [3], in data set [1] and in data set [2] were 15 nM, 17 nM and 120 nM, respectively.

Regarding `Cc1cc(-c2ccncc2NC(=O)c2nc(-c3nccs3)ccc2N)nc(N)n1`, the Ki in data set [3] was below 3 nM; in data set [1], below 1 nM; in data set [2], 9 nM. The hepatic extraction ratio at 0.5 h, 1 µM in data set [4] is 0.81; in data set [6], 0.64.

With `Cc1cc(-c2ccncc2NC(=O)c2nc(-c3ccccc3F)ccc2N)nc(N)n1`, the Ki in data set [3] is below 3 nM; in data set [1], below 1 nM; in data set [2], below 3 nM. Moreover, the figures for the hepatic extraction ratio at 0.5 h, 1 µM in data set [4] and in data set [6] were 0.8 and 0.58, respectively.

For `Cc1cc(-c2ccncc2NC(=O)c2nc(-c3c(F)cccc3F)ccc2N)cc(N)n1`, the results for the Ki in data set [3], in data set [1] and in data set [2] were below 3 nM, below 1 nM and below 3 nM, respectively. For the same compound, the values for the hepatic extraction ratio at 0.5 h, 1 µM in data set [4] and in data set [6] were 0.94 and 0.96, respectively.

Take `Nc1cc(-c2ccncc2NC(=O)c2nc(-c3c(F)cccc3F)ccc2N)ncn1`: the Ki in data set [3] was determined as 5 nM; in data set [1], 4 nM; in data set [2], 27 nM.

With `Nc1nccc(-c2ccncc2NC(=O)c2nc(-c3c(F)cccc3F)ccc2N)n1`, the Ki in data set [3] worked out at 5 nM; in data set [1], 6 nM; in data set [2] it was 50 nM.

As for `Nc1ccc(-c2ccccc2F)nc1C(=O)Nc1cnccc1-c1ccncc1`, the Ki was 21 nM in data set [3], 8 nM in data set [1] and 317 nM in data set [2].

For the compound `Nc1ccc(-c2ccncc2NC(=O)c2nc(-c3ccccc3F)ccc2N)cn1`, the results for the Ki in data set [3], in data set [1] and in data set [2] were 12 nM, 4 nM and 158 nM, respectively.

In the case of `Nc1cc(-c2ccncc2NC(=O)c2nc(-c3c(F)cccc3F)ccc2N)ccn1`, the Ki in data set [3] is below 3 nM; in data set [1], 2 nM; in data set [2] it was 8 nM.

Take `Cc1nc(N)cc(-c2ccncc2NC(=O)c2nc(-c3c(F)cccc3F)ccc2N)n1`: the values for the Ki in data set [3], in data set [1] and in data set [2] were below 3 nM, below 1 nM and below 3 nM, respectively. Moreover, the hepatic extraction ratio at 0.5 h, 1 µM in data set [4] and in data set [6] was 0.82 throughout.

Turning to `COc1cc(-c2ccncc2NC(=O)c2nc(-c3c(F)cccc3F)ccc2N)cc(N)n1`, the results for the Ki in data set [3], in data set [1] and in data set [2] were below 3 nM, below 1 nM and 4 nM, respectively.
